Results taken from US8871753B2, “Macrocyclic compounds and their use as kinase inhibitors” (Incyte Corporation, priority 2008, dated 2014).
Counter-ions that a name gives are not always drawn.

Columns and labels:
Assay type in all cases: biochemical
[1] = biological target: T1, human JAK1 (a.a. 837-1142) (Homo sapiens, UniProt P23458); test: In vitro JAK kinase assay (HTRF, phosphorylation of a biotinylated peptide), JAK1; conditions: Table B1; read-out: JAK1 IC50
T1 construct: human JAK1 (a.a. 837-1142); His tag (N); made in house; host or cells: insect cells (baculovirus)
T1 sequence (P23458 849-1154): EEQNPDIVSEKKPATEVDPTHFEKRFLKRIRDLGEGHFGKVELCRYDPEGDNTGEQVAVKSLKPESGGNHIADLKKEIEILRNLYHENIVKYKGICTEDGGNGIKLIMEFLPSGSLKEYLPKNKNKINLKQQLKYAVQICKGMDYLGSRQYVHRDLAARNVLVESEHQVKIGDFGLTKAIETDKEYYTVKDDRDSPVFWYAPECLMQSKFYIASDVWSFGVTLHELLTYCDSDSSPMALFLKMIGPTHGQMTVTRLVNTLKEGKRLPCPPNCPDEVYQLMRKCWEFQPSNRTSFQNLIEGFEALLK
In short: (§1)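 Phosphorylation of a biotinylated peptide by the JAK kinase domain, detected by HTRF with Eu-Py20 and SA-APC. ATP was 90 μM for JAK1, 30 μM for JAK2 and 3 μM for JAK3. Reactions ran 1 h at room temperature and were stopped with EDTA, followed by 40 min antibody binding.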

TYK2 = TYK2 (Homo sapiens, UniProt P29597); test: TYK2 kinase inhibition (Table A1); conditions: Table B1
Chain of TYK2 (P29597 whole entry): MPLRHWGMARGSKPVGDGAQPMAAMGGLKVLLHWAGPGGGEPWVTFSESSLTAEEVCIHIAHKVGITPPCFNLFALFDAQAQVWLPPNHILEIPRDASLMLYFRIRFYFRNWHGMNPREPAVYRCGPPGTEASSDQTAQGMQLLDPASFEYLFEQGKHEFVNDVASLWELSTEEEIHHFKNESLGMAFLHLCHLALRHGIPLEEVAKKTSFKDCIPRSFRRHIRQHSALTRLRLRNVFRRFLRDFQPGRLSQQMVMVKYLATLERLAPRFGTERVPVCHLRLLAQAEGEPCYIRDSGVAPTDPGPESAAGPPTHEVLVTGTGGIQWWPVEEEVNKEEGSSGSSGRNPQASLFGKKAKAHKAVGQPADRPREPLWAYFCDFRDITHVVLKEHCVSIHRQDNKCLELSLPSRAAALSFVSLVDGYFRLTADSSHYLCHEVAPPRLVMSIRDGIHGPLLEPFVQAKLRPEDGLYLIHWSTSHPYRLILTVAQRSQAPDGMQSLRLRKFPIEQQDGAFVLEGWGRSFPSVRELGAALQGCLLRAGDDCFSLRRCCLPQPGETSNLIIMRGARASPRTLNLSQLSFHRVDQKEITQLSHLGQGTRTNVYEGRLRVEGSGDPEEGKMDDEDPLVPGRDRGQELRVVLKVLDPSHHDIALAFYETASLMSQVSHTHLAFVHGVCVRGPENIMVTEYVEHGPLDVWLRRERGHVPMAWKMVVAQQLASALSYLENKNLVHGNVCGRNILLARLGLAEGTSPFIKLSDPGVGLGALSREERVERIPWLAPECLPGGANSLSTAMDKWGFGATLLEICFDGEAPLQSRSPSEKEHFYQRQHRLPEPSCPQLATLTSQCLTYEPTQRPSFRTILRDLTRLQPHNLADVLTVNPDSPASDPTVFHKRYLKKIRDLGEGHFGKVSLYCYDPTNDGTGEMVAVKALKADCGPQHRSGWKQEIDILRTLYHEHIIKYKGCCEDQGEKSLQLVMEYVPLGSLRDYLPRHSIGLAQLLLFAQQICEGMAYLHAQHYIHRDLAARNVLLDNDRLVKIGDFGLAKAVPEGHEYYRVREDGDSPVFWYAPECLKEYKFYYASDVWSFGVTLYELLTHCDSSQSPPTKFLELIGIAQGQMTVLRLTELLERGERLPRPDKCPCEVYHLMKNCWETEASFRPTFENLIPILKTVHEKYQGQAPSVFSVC

[2] = biological target: T2, human JAK3 (a.a. 781-1124) (Homo sapiens, UniProt P52333); test: In vitro JAK kinase assay (HTRF, phosphorylation of a biotinylated peptide), JAK3; conditions: Table B1
T2 construct: JAK3 (a.a. 781-1124); His tag (N); made in house; host or cells: insect cells (baculovirus)
T2 sequence (P52333 781-1124): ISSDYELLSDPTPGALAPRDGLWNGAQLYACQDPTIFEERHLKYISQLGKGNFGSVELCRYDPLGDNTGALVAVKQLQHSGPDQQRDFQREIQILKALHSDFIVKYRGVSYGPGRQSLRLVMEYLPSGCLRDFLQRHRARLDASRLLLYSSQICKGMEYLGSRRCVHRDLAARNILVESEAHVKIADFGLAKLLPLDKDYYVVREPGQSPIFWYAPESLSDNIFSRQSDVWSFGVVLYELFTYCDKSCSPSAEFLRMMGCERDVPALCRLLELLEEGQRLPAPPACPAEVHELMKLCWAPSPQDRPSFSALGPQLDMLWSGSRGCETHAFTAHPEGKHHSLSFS
In short: as §1

[3] = biological target: T3, human JAK2 (a.a. 828-1132) (Homo sapiens, UniProt O60674); test: In vitro JAK kinase assay (HTRF, phosphorylation of a biotinylated peptide), JAK2; conditions: Table B1
T3 construct: JAK2 (a.a. 828-1132); His tag (N); made in house; host or cells: insect cells (baculovirus)
T3 sequence (O60674 828-1132): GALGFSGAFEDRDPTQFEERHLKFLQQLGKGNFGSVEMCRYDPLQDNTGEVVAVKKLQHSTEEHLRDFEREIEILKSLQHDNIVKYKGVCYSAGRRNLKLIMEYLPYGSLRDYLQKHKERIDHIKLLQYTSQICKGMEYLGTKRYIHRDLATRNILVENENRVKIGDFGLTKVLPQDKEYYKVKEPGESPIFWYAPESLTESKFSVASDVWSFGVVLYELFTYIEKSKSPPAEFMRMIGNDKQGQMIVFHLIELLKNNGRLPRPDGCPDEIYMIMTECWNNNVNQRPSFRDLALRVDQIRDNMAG
In short: as §1

[4] = biological target: T4, Recombinant Human Anaplastic Lymphoma Kinase (Homo sapiens, UniProt Q9UM73); test: ALK HTRF kinase assay; conditions: for ALK % of inhibition at a concentration of 500 nM or 1 mM: compound at a concentration of 500 nM or 1 mM (not specified), cells shown as percentage; for IC50: Table B1, cells without percent sign
T4 construct: purchased Invitrogen, Carlsbad, Calif
T4 sequence (Q9UM73 19-1620): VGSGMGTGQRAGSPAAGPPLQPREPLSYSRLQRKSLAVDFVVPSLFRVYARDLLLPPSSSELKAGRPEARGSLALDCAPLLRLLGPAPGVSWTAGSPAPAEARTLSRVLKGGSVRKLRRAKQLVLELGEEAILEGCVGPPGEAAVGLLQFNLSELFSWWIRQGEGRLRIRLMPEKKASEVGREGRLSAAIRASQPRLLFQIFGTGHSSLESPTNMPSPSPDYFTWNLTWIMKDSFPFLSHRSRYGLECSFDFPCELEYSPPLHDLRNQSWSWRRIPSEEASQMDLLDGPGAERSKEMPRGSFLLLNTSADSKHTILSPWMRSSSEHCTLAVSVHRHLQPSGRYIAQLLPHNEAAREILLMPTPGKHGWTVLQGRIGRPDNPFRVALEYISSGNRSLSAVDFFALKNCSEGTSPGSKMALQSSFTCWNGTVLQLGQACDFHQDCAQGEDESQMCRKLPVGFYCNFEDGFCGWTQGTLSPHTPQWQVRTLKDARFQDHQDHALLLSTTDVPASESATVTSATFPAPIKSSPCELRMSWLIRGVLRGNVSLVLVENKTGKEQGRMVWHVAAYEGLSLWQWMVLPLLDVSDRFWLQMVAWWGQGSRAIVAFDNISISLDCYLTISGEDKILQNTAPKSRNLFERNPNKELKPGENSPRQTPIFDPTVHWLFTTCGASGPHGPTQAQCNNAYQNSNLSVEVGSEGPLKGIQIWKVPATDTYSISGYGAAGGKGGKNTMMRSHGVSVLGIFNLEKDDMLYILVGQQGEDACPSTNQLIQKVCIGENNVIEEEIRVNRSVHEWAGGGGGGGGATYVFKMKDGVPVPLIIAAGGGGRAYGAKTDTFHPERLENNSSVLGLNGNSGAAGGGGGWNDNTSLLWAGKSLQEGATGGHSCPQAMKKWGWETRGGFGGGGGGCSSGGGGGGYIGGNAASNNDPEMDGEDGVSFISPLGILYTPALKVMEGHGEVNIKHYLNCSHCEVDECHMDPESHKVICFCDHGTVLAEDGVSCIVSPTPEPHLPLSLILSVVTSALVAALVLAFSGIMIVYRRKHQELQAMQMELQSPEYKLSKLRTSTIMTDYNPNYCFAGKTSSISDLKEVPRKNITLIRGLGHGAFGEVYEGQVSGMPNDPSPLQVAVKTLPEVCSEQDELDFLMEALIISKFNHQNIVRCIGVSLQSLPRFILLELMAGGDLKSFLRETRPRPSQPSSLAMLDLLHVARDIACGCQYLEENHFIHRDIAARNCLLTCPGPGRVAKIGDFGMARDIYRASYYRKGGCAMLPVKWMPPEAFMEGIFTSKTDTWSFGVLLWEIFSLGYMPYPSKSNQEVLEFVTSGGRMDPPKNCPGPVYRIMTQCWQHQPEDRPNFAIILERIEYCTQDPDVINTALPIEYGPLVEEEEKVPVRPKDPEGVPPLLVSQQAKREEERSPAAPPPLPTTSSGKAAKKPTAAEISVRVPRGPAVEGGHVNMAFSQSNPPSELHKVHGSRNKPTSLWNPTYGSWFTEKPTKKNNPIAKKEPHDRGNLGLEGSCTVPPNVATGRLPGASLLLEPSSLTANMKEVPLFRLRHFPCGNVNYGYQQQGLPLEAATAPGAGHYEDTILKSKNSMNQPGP
In short: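 Biotinylated peptide substrate, recombinant human ALK; detection via europium-chelate antibody to phosphotyrosine paired with streptavidin-APC. Potency expressed as IC50 from four-parameter curve fitting.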

SMILES | IC50 [1] | IC50 (TYK2) | IC50 [2] | IC50 [3] | ALK % of inhibition at a concentration of 500 nM or 1 mM [4] | IC50 [4]
Clc1cnc2nc1Nc1cc(cc(CN3CCNCC3)c1)CCc1cccc(c1)N2 [Example B191, 6-Chloro-11-(piperazin-1-ylmethyl)-2,4,8,22-tetraazatetracyclo[14.3.1.1(3,7).1(9,13)]docosa-1(20),3(22),4,6,9(21),10,12,16,18-nonaene dihydrochloride] | 93 nM | 378 nM | 205 nM | 27 nM |  | 1530 nM
O=[N+]([O-])c1ccc(CN2CCN(Cc3cc4cc(c3)Nc3nc(ncc3Cl)Nc3cccc(c3)CC4)CC2)cc1 [Example B194, 6-Chloro-11-{[4-(4-nitrobenzyl)piperazin-1-yl]methyl}-2,4,8,22-tetraazatetracyclo[14.3.1.1(3,7).1(9,13)]docosa-1(20),3(22),4,6,9(21),10,12,16,18-nonaene tris(trifluoroacetate)] | 36 nM | 251 nM | 108 nM | 12 nM |  | > 1000 nM
O=S(=O)(c1ccc(Cl)cc1)c1ccc(CN2CCN(Cc3cc4cc(c3)Nc3nc(ncc3Cl)Nc3cccc(c3)CC4)CC2)cc1 [Example B195, 6-Chloro-11-[(4-{4-[(4-chlorophenyl)sulfonyl]benzyl}piperazin-1-yl)methyl]-2,4,8,22-tetraazatetracyclo[14.3.1.1(3,7).1(9,13)]docosa-1(20),3(22),4,6,9(21),10,12,16,18-nonaene tris(trifluoroacetate)] | > 1000 nM | > 1000 nM | > 1000 nM | 91 nM |  | > 10000 nM
COc1cccc(CN2CCN(Cc3cc4cc(c3)Nc3nc(ncc3Cl)Nc3cccc(c3)CC4)CC2)c1 [Example B198, 6-Chloro-11-{[4-(3-methoxybenzyl)piperazin-1-yl]methyl}-2,4,8,22-tetraazatetracyclo[14.3.1.1(3,7).1(9,13)]docosa-1(20),3(22),4,6,9(21),10,12,16,18-nonaene tris(trifluoroacetate)] | 39 nM | 289 nM | 161 nM | 10 nM |  | > 10000 nM
O=C(Nc1ccccc1)c1ccc2cc1CCc1cccc(c1)Nc1ncc(Cl)c(n1)N2 [Example B200, 6-Chloro-N-phenyl-2,4,8,22-tetraazatetracyclo[14.3.1.1(3,7).1(9,13)]docosa-1(20),3(22),4,6,9(21),10,12,16,18-nonaene-12-carboxamide trifluoroacetate] | 82 nM | 85 nM | 118 nM | 17 nM |  | 4400 nM
O=C(Nc1cc2cc(c1)Nc1nc(ncc1Cl)Nc1cccc(c1)CC2)c1ccccn1 [Example B201, N-[6-Chloro-2,4,8,22-tetraazatetracyclo[14.3.1.1(3,7).1(9,13)]docosa-1(20),3(22),4,6,9(21),10,12,16,18-nonaen-11-yl]pyridine-2-carboxamide trifluoroacetate] | 119 nM | > 1000 nM | 454 nM | 410 nM |  | > 10000 nM
O=C(Nc1ccccc1)Nc1cc2cc(c1)Nc1nc(ncc1Cl)Nc1cccc(c1)CC2 [Example B202, N-[6-Chloro-2,4,8,22-tetraazatetracyclo[14.3.1.1(3,7).1(9,13)]docosa-1(20),3(22),4,6,9(21),10,12,16,18-nonaen-11-yl]-N′-phenylurea trifluoroacetate] | 36 nM | 205 nM | 101 nM | 56 nM |  | 3600 nM

The next compounds have a lower IC50 [1] than those just listed; values first:

IC50 [1] | IC50 (TYK2) | IC50 [2] | IC50 [3] | ALK % of inhibition at a concentration of 500 nM or 1 mM [4] | IC50 [4] | SMILES
21 nM | 341 nM | 308 nM | 23 nM |  | > 1000 nM | Fc1ccc(CN2CCN(Cc3cc4cc(c3)Nc3nc(ncc3Cl)Nc3cccc(c3)CC4)CC2)cc1 [Example B192, 6-Chloro-11-{[4-(4-fluorobenzyl)piperazin-1-yl]methyl}-2,4,8,22-tetraazatetracyclo[14.3.1.1(3,7).1(9,13)]docosa-1(20),3(22),4,6,9(21),10,12,16,18-nonaene tris(trifluoroacetate)]
18 nM | 188 nM | 138 nM | 2.2 nM |  | > 1000 nM | COc1ccc(CN2CCN(Cc3cc4cc(c3)Nc3nc(ncc3Cl)Nc3cccc(c3)CC4)CC2)cc1 [Example B197, 6-Chloro-11-{[4-(4-methoxybenzyl)piperazin-1-yl]methyl}-2,4,8,22-tetraazatetracyclo[14.3.1.1(3,7).1(9,13)]docosa-1(20),3(22),4,6,9(21),10,12,16,18-nonaene tris(trifluoroacetate)]
5 nM | 22 nM | 35 nM | 6.7 nM | 15% |  | O=C(NCCNC(=O)c1ccccc1)Nc1ccc2cc1CCc1cccc(c1)Nc1ncc(Cl)c(n1)N2 [Example B189, N-{2-[({[6-Chloro-2,4,8,22-tetraazatetracyclo[14.3.1.1(3,7).1(9,13)]docosa-1(20),3(22),4,6,9(21),10,12,16,18-nonaen-12-yl]amino}carbonyl)amino]ethyl}benzamide trifluoroacetate]
5 nM | 19 nM | 61 nM | 10 nM | 11% |  | O=C(NCCNC(=O)c1ccccn1)Nc1ccc2cc1CCc1cccc(c1)Nc1ncc(Cl)c(n1)N2 [Example B190, N-{2-[({[6-Chloro-2,4,8,22-tetraazatetracyclo[14.3.1.1(3,7).1(9,13)]docosa-1(20),3(22),4,6,9(21),10,12,16,18-nonaen-12-yl]amino}carbonyl)amino]ethyl}pyridine-2-carboxamide trifluoroacetate]
4.9 nM | 154 nM | 64 nM | 2.7 nM |  | > 1000 nM | Clc1ccc(CN2CCN(Cc3cc4cc(c3)Nc3nc(ncc3Cl)Nc3cccc(c3)CC4)CC2)cc1 [Example B199, 6-Chloro-11-{[4-(4-chlorobenzyl)piperazin-1-yl]methyl}-2,4,8,22-tetraazatetracyclo[14.3.1.1(3,7).1(9,13)]docosa-1(20),3(22),4,6,9(21),10,12,16,18-nonaene tris(trifluoroacetate)]
4 nM | 13 nM | 52 nM | 7.7 nM | 24% |  | CC(C)NC(=O)NCCNC(=O)Nc1ccc2cc1CCc1cccc(c1)Nc1ncc(Cl)c(n1)N2 [Example B188, N-[6-Chloro-2,4,8,22-tetraazatetracyclo[14.3.1.1(3,7).1(9,13)]docosa-1(20),3(22),4,6,9(21),10,12,16,18-nonaen-12-yl]-N′-(2-{[(isopropylamino)carbonyl]amino}ethyl)urea trifluoroacetate]
3.5 nM | 111 nM | 48 nM | 0.88 nM |  | > 10000 nM | Clc1cnc2nc1Nc1cc(cc(CN3CCN(Cc4cc(Br)cs4)CC3)c1)CCc1cccc(c1)N2 [Example B196, 11-({4-[(4-Bromo-2-thienyl)methyl]piperazin-1-yl}methyl)-6-chloro-2,4,8,22-tetraazatetracyclo[14.3.1.1(3,7).1(9,13)]docosa-1(20),3(22),4,6,9(21),10,12,16,18-nonaene tris(trifluoroacetate)]
